Laboratory results reported in patent US10188743B2, “Cytisine-linked isoflavonoid antineoplastic agents for the treatment of cancer” (UNIVERSITY OF KENTUCKY RESEARCH FOUNDATION, priority 2016, dated 2019).

Columns and labels:
AMPK = AMPK activation (levels of phosphorylated AMPK, Western blotting); type: cell-based
Description: (§1) Biochemistry. Western blotting: Cells were lysed in the appropriate volume of lysis buffer (50 mM HEPES, 100 mM NaCl, 2 mM EDTA, 1% glycerol, 50 mM NaF, 1 mM Na3VO4, 1% Triton X-100, with protease inhibitors). The following antibodies were used: HSD17B4 (GeneTex, GTX103864), AMPK (Cell Signaling, 2532), pAMPK (Cell Signaling, 2535), ACC (Cell Signaling, 3676), pACC (Cell Signaling, 11818), p^70 (Cell Signaling, 2708), p-p^70 (Cell Signaling, 9914), S6 (Cell Signaling, 2217), pS6 (Cell Signaling, 4858), MCCA (GeneTex, GTX110062), tubulin (Hybridoma Bank, E7), Actin (Sigma, A1978), His-tag (BD Pharmingen, 552564).

[1] = system: acetyl CoA carboxylase (ACC); experiment: ACC phosphorylation / activation downstream of AMPK (Western blotting); type: cell-based
Description: as §1

[2] = system: HSD17B4 (full-length and truncated constructs); experiment: Streptavidin bead-based pull-down with purified full-length and truncated HSD17B4 constructs; type: binding; settings: purified protein from E. coli
Source text: (§2) We next sought to delineate if these cystisine-linked isoflavonoid inhibitors were selective for one of the two enzymatic activities, either the α,β-dehydrogenase or hydratase activity, found in HSD17B4. We generated a panel of truncated HSD17B4 constructs and purified these truncated proteins as well as the full-length protein from E. coli (FIG. 3A). We evaluated the binding of 15d to these constructs using the streptavidin bead-based pull-down assay.
(§3) Streptavidin-agarose pulldown: Biotinylated compound 15d (FIG. 2A) was incubated with cell lysates and streptavidin beads. The binding proteins were pulled down and analyzed by 4-12% SDS-PAGE as described previously. The protein bands were identified by NanoLC-ESI-MS/MS at ProtTech Inc. For binding and enzymatic assays, His-tagged HSD17B4 constructs were clone and truncated by PCR using pET28. The full-length and truncated proteins were purified from bacteria BL21.

[3] = target: T1, HSD17B4 (full-length and truncated constructs) (Homo sapiens, UniProt P51659); experiment: as above; type: binding; settings: purified protein from E. coli
T1 construct: His-tag; made in house; host or cells: E. coli BL21 (pET28)
T1 sequence (P51659 1-736): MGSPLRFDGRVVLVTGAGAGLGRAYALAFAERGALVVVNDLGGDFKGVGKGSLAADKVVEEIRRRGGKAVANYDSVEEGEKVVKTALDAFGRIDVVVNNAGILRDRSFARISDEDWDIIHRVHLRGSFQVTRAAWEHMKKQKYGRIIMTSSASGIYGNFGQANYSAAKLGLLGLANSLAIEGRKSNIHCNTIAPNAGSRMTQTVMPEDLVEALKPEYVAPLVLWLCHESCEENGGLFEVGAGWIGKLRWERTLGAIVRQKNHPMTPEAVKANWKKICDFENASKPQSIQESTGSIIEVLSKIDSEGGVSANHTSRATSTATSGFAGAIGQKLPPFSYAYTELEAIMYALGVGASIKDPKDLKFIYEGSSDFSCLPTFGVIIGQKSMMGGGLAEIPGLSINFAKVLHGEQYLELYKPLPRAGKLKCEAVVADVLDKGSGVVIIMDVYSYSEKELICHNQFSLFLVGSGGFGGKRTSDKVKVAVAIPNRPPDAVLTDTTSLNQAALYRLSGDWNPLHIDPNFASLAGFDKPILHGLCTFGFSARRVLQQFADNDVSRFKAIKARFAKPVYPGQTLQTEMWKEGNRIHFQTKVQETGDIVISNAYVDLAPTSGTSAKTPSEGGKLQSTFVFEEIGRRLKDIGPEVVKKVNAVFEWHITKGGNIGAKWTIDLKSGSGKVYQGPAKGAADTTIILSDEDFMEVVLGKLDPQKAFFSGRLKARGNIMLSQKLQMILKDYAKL
Source text: as §2, §3

HSD17B4 = experiment: Streptavidin-bead pull-down from LS174T cell lysates, validated by Western blot; type: binding
Description: (§4) Identification of the direct target of these AMPK activators involved incubation of 15d with LS174T cell lysates and a subsequent pull-down assay using biotinylated 15d bound to streptavidin beads. The binding proteins were eluted with 2.5 mM biotin and analyzed by 4-12% SDS-PAGE gel using colloidal blue staining (FIG. 2D). We identified two specific bands (F1 and F2) in the 15d-containing sample compared with the control samples containing only beads or only beads and biotin. These two bands were excised from gels and analyzed by NanoLC-ESI-MS/MS. The band F1 (FIG. 2D) contained two proteins: [1] peroxisomal hydroxysteroid 17-dehydrogenase-4 (HSD17B4); and [2] mitochondrial methylcrotonoyl-CoA carboxylase subunit alpha (MCCA). The band F2 also matched HSD17B4.
(§5) The multifunctional nature of HSD17B4 included two of the four enzymatic activities required for the beta-oxidation of very long-chain fatty acids (VLCFA) in the peroxisome. […] The HSD17B4 antibody (GeneTex) recognized the full-length and the C-terminal fragment (FIG. 2E).
(§6) Streptavidin-agarose pulldown: Biotinylated compound 15d (FIG. 2A) was incubated with cell lysates and streptavidin beads. The binding proteins were pulled down and analyzed by 4-12% SDS-PAGE as described previously. […]

MCCA = target: T2, MCCA (Homo sapiens, UniProt Q96RQ3); experiment: as above; type: binding
T2 construct: endogenous in cells; host or cells: LS174T colon cancer cells
T2 sequence (Q96RQ3 42-725): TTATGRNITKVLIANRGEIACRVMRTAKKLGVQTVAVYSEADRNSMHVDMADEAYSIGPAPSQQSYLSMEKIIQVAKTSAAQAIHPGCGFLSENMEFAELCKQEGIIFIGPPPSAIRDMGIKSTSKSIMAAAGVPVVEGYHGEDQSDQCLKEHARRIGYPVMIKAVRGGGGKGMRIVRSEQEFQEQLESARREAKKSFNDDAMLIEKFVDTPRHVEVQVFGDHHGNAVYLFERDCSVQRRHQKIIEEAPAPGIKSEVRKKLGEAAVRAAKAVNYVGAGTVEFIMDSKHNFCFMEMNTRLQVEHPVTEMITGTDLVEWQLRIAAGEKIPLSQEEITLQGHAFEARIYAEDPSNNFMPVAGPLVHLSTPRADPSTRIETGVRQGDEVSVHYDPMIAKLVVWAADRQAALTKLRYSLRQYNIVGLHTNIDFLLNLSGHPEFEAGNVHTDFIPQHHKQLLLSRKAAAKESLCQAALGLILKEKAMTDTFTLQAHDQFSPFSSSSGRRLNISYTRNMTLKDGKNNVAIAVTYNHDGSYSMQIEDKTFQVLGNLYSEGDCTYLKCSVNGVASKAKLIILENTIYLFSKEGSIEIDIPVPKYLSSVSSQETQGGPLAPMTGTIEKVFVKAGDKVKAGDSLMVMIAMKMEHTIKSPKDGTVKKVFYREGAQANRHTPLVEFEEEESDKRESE
Description: as §4, §5, §6

Structure (SMILES)	melting point [°C]	AMPK-fold Activation (10 μM) (AMPK) [fold]	AMPK activation (in words) (AMPK)	further results
O=c1c(-c2ccccc2)coc2cc(OCCN3C[C@@H]4C[C@H](C3)c3cccc(=O)n3C4)ccc12 [Compound 10a, (1R,5S)-3-(2-((4-Oxo-3-phenyl-4H-chromen-7-yl)oxy)ethyl)-3,4,5,6-tetrahydro-1H-1,5-methanopyrido[1,2-a][1,5]diazocin-8(2H)-one]	197 to 198	3.6	–	–
O=c1c(-c2ccc(Cl)cc2)coc2cc(O)ccc12 [Compound 3c, 3-(4-Chlorophenyl)-7-hydroxy-4H-chromen-4-one]	–	–	most active AMPK activators	activation of acetyl CoA carboxylase [1]: modest activation
Cc1oc2cc(O)ccc2c(=O)c1-c1ccc(Cl)cc1 [Compound 3d, 3-(4-Chlorophenyl)-7-hydroxy-2-methyl-4H-chromen-4-one]	277 to 278	–	most active AMPK activators	activation of acetyl CoA carboxylase [1]: modest activation
COc1ccc(-c2coc3cc(OCCN4C[C@@H]5C[C@H](C4)c4cccc(=O)n4C5)ccc3c2=O)cc1 [Compound 10b, (1R,5S)-3-(2-((3-(4-Methoxyphenyl)-4-oxo-4H-chromen-7-yl)oxy)ethyl)-3,4,5,6-tetrahydro-1H-1,5-methanopyrido[1,2-a][1,5]diazocin-8(2H)-one]	–	9.9	–	–
O=c1cccc2n1C[C@H]1C[C@H]2CN(CC(O)CCCCOc2ccccc2)C1 (stereo partly drawn) [Compound 16, (1S,5S)-3-(2-Hydroxy-6-phenoxyhexyl)-3,4,5,6-tetrabydro-1H-1,5-methanopyrido[1,2-a][1,5]diazocin-8(2H)-one]	–	–	inactive	–
Cc1oc2cc(OCCN3C[C@@H]4C[C@H](C3)c3cccc(=O)n3C4)ccc2c(=O)c1-c1ccc(Cl)cc1 [Compound 10d, (1R,5S)-3-(2-((3-(4-Chlorophenyl)-2-methyl-4-oxo-4H-chromen-7-yl)oxy)ethyl)-3,4,5,6-tetrahydro-1H-1,5-methanopyrido[1,2-a][1,5]diazocin-8(2H)-one]	186 to 187	2.2	–	–
O=C(CCCCOc1ccccc1)CN1C[C@@H]2C[C@@H](C1)c1cccc(=O)n1C2 [Compound 17, (1S,5S)-3-(2-oxo-6-phenoxyhexyl)-3,4,5,6-tetrahydro-1H-1,5-methanopyrido[1,2-a][1,5]diazocin-8(2H)-one]	–	–	inactive	–
Cc1oc2cc(OCCCCC(CN3C[C@@H]4C[C@@H](C3)c3cccc(=O)n3C4)=NNC(=O)CCOCCOCCOCCOCCNC(=O)CCCC[C@@H]3SCC4NC(=O)NC43)ccc2c(=O)c1-c1ccc(Cl)cc1 (stereo partly drawn) [Compound 15d, N-(22-((3-(4-chlorophenyl)-2-methyl-4-oxo-4H-chromen-7-yl)oxy)-15-oxo-18-(((1S,5S)-8-oxo-1,5,6,8-tetrahydro-2H-1,5-methanopyrido[1,2-a][,5]diazocin-3(4H)-yl)methyl)-3,6,9,12-tetraoxa-16,17-diazadocos-17-en-1-yl)-5-((4S)-2-oxohexahydro-1H-thieno[3,4-d]imidazol-4-yl)pentanamide]	–	–	–	binding to N-terminus-truncated fragment C919 [2]: strongly bound; interaction with C-terminus-truncated fragment N634 [2]: not the C-terminus-truncated fragments N318 and N634, interacted; interaction with full-length HSD17B4 [3]: interacted; binding of HSD17B4 in pull-down (HSD17B4): specific binding protein; binding of MCCA in pull-down (MCCA): non-specific binding protein
